Experimental data as given in paper PMC8292346, “Dysfunction of the key ferroptosis-surveilling systems hypersensitizes mice to tubular necrosis during acute kidney injury” (Nature Communications, 2021).
Where two headings read alike, the source gives them in different places.

How the values were obtained:
[1] = tested on: NMDA; test: Off-target radioligand binding screen; conditions: Nec-1f 10 µM
[2] = target: μ (MOP) (h) (Homo sapiens, UniProt P35372); test: Off-target radioligand binding screen; conditions: read-out: μ (MOP) (h) (#): inhibition of radioligand binding
[3] = target: CB2(h) (Homo sapiens, UniProt P34972); test: Off-target radioligand binding screen; conditions: read-out: CB2(h) (#): inhibition of radioligand binding
[4] = target: H1(h) (Homo sapiens, UniProt P35367); test: Off-target radioligand binding screen; conditions: read-out: H1(h) ($): inhibition of radioligand binding
[5] = target: N neuronal α4β2 (h) (Homo sapiens, UniProt P17787+P43681); test: Off-target radioligand binding screen; conditions: read-out: N neuronal α4β2 (h) (#): inhibition of radioligand binding
[6] = target: δ (DOP) (h) (Homo sapiens, UniProt P41143); test: Off-target radioligand binding screen; conditions: read-out: δ (DOP) (h) (#): inhibition of radioligand binding
[7] = target: Potassium Channel hERG (human) (Homo sapiens, UniProt Q12809); test: Off-target radioligand binding screen; conditions: Nec-1f 10 µM
[8] = target: indoleamine 2,3-dioxygenase (IDO) (Homo sapiens, UniProt P14902); test: IDO assay (formation of N-formyl-kynurenine from L-tryptophan); conditions: read-out: IDO (h): inhibition
[9] = target: M2 (h) (Homo sapiens, UniProt P08172); test: Off-target radioligand binding screen; conditions: read-out: M2 (h) ($): inhibition of radioligand binding
[10] = target: 5-HT2A(h) (Homo sapiens, UniProt P28223); test: Off-target radioligand binding screen; conditions: read-out: 5-HT2A(h) (#): inhibition of radioligand binding
[11] = target: CB1(h) (Homo sapiens, UniProt P21554); test: Off-target radioligand binding screen; conditions: read-out: CB1(h) (#): inhibition of radioligand binding
[12] = Pharmacokinetic analysis of Nec-1f in mice (tissue PK); format: in vivo, C57BL/6 mice; conditions: for concentration at 120 min: sample collection 120 min
[13] = sample collection 240 min, individual mice
[14] = sample collection 360 min, individual mice
[15] = sample collection 480 min, individual mice
[16] = sample collection 1440 min, individual mice
[17] = sample collection 0 min, individual mice

Chain of 5-HT2A(h) (P28223 whole entry): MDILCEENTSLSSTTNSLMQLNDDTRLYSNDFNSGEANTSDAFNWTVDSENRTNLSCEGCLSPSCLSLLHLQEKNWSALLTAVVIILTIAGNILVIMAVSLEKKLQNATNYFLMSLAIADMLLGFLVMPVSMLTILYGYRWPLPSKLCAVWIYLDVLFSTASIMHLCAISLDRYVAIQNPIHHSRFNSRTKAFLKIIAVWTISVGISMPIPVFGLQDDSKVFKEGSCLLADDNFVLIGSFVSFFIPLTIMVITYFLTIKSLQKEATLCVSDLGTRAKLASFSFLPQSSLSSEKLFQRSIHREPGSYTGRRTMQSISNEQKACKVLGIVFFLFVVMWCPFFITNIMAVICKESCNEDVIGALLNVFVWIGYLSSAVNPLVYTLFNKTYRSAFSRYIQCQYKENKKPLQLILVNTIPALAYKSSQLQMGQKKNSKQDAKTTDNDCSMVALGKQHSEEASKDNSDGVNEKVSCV
Chain of δ (DOP) (h) (P41143 whole entry): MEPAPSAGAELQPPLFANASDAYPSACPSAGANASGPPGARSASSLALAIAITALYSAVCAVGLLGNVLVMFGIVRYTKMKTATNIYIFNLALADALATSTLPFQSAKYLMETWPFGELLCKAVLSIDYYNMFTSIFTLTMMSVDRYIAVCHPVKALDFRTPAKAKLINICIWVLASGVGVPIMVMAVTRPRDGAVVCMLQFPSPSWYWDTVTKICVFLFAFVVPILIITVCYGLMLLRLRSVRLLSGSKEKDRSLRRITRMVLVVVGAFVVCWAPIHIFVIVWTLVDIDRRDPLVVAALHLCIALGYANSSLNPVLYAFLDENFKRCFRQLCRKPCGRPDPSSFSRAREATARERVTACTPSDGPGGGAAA
Chain of N neuronal α4β2 (h) (P43681 29-627 limits assumed): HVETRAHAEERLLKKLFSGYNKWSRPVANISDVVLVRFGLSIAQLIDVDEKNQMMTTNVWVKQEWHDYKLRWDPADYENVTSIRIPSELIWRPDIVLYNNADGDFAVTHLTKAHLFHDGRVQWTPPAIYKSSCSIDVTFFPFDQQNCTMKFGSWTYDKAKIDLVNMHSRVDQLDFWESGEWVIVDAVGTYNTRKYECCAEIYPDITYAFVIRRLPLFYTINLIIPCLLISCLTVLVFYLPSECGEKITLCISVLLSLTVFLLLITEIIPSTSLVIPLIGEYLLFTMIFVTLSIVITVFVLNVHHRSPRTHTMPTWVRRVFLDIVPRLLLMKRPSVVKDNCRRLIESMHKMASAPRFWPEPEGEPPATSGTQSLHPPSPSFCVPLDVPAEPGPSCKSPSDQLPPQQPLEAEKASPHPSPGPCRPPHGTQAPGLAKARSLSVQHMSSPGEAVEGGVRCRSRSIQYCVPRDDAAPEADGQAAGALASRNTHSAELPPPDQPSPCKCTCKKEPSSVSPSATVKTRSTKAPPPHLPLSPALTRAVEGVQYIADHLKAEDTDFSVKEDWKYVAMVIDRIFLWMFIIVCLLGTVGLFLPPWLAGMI
Chain of N neuronal α4β2 (h) (P17787 26-502): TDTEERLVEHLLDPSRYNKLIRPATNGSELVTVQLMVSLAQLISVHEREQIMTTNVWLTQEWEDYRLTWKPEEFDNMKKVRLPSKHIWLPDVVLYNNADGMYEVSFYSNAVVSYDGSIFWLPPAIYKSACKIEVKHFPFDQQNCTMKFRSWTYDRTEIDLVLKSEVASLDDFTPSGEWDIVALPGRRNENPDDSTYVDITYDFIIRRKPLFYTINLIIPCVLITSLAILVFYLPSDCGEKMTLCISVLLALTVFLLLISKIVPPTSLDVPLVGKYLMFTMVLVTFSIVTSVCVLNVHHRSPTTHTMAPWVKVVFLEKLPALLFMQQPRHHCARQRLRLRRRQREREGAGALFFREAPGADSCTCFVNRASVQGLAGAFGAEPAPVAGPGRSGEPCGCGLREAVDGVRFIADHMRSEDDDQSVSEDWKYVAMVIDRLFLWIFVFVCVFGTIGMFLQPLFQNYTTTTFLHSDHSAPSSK
Chain of CB2(h) (P34972 whole entry): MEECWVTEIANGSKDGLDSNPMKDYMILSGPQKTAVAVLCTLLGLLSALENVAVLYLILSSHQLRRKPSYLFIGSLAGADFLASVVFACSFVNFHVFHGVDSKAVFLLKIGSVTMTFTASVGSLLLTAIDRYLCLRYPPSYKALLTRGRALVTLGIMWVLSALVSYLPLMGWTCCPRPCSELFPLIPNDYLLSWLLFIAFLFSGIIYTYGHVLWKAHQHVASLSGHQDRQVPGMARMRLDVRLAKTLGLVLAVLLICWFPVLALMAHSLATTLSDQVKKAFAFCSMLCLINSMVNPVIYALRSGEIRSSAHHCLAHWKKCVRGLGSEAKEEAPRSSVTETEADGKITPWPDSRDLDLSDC
Chain of indoleamine 2,3-dioxygenase (IDO) (P14902 whole entry): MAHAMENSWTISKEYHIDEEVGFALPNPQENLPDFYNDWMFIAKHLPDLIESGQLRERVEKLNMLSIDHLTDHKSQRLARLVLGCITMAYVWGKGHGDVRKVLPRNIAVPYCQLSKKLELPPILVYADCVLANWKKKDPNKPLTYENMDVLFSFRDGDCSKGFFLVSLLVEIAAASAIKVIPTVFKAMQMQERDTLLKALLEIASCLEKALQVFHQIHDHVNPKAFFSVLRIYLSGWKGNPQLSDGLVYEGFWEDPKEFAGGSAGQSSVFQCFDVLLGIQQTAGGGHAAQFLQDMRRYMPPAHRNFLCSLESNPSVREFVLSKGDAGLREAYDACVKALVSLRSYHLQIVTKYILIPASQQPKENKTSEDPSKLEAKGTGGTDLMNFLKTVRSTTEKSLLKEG
Chain of M2 (h) (P08172 whole entry): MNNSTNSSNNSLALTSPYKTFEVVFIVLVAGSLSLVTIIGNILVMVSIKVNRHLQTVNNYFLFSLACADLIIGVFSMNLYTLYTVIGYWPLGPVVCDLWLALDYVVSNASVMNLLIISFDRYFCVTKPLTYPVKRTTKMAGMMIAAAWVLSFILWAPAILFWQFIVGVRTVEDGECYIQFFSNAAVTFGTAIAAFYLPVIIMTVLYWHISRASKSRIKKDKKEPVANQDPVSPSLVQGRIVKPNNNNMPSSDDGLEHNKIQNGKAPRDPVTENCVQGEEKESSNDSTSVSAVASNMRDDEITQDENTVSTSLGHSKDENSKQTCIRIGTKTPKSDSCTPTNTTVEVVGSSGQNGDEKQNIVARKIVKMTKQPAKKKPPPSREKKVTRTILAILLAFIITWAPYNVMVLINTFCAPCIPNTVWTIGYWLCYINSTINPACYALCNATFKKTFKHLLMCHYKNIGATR
Chain of Potassium Channel hERG (human) (Q12809 whole entry): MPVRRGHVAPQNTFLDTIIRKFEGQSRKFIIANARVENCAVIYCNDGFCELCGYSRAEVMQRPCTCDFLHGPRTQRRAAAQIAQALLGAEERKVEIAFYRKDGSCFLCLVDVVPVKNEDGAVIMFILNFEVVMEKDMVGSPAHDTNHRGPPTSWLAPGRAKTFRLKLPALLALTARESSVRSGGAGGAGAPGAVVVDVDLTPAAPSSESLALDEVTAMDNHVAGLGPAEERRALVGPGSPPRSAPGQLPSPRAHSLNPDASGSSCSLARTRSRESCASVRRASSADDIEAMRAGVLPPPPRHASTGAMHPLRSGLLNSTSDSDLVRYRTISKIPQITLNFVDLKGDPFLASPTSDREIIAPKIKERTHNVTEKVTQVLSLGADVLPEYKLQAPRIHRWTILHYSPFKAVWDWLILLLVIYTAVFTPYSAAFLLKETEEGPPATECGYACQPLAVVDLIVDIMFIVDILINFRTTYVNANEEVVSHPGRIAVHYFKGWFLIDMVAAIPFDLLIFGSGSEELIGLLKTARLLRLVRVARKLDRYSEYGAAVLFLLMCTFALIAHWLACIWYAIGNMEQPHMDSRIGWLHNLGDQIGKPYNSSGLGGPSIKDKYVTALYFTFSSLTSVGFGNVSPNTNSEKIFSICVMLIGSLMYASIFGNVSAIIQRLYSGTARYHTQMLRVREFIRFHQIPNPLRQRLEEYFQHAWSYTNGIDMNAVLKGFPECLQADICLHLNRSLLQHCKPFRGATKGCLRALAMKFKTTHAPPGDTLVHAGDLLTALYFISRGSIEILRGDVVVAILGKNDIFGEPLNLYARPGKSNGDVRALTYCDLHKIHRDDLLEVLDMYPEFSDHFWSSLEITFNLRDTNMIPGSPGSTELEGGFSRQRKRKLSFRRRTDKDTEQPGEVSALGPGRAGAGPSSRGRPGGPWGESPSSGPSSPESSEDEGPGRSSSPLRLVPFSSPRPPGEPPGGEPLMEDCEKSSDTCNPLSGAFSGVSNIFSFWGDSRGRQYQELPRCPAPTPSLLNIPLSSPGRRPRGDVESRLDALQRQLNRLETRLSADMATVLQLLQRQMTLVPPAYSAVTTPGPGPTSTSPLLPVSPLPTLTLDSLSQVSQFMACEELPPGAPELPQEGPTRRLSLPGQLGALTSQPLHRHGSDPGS
Chain of CB1(h) (P21554 whole entry): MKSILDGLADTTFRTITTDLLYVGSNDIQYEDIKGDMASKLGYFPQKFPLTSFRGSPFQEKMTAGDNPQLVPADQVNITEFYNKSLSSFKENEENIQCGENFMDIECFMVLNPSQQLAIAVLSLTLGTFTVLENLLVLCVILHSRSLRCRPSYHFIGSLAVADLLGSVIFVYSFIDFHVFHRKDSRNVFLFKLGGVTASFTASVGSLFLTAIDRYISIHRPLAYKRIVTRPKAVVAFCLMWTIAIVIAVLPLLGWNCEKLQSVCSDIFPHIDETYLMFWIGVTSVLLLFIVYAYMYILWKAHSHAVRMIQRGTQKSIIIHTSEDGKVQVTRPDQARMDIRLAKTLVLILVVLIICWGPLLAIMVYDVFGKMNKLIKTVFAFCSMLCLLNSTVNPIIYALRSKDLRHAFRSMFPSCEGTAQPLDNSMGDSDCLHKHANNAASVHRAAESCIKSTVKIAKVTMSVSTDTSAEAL

## CN1C(=O)C(Cc2c[nH]c3c(Cl)cccc23)NC1=S (stereo not shown) [Nec-1f]
[1]
  NMDA ($): inhibition of radioligand binding: 1.4%
[2]
  inhibition at 10 µM: 15.8%
[3]
  inhibition at 10 µM: -12.8%
[4]
  inhibition at 10 µM: 9.3%
[5]
  inhibition at 10 µM: 3.6%
[6]
  inhibition at 10 µM: 2.8%
[7]
  Potassium Channel hERG (human)- [3H] Dofetilide: inhibition of radioligand binding: -2.7%
[8]
  inhibition at 10 µM: 2%
[9]
  inhibition at 10 µM: -1.7%
[10]
  inhibition at 10 µM: -2.8%
[11]
  inhibition at 10 µM: -24.7%
[12]; [13]
  concentration in blood: 0 ng/mL
  concentration in liver: 0 ng/mL
  concentration in lung: 0 ng/mL
[12]; [14]
  concentration in blood: 0 ng/mL
  concentration in liver: 0 ng/mL
  concentration in lung: 0 ng/mL
[12]; [15]
  concentration in blood: 0 ng/mL
  concentration in liver: 0 ng/mL
  concentration in lung: 0 ng/mL
[12]; [16]
  concentration in blood: 0 ng/mL
  concentration in liver: 0 ng/mL
  concentration in lung: 0 ng/mL
[12]; brain, sample collection 240 min, individual mice
  concentration in brain: 0 ng/mL
[12]; brain, sample collection 360 min, individual mice
  concentration in brain: 0 ng/mL
[12]; brain, sample collection 480 min, individual mice
  concentration in brain: 0 ng/mL
[12]; brain, sample collection 1440 min, individual mice
  concentration in brain: 0 ng/mL
[12]; heart, sample collection 0 min, individual mice
  concentration in heart: 0 ng/mL
[12]; heart, sample collection 240 min, individual mice
  concentration in heart: 0 ng/mL
[12]; heart, sample collection 360 min, individual mice
  concentration in heart: 0 ng/mL
[12]; heart, sample collection 480 min, individual mice
  concentration in heart: 0 ng/mL
[12]; heart, sample collection 1440 min, individual mice
  concentration in heart: 0 ng/mL
[12]; kidney, sample collection 0 min, individual mice
  concentration in kidney: 0 ng/mL
[12]; kidney, sample collection 240 min, individual mice
  concentration in kidney: 0 ng/mL
[12]; kidney, sample collection 360 min, individual mice
  concentration in kidney: 0 ng/mL
[12]; kidney, sample collection 480 min, individual mice
  concentration in kidney: 0 ng/mL
[12]; kidney, sample collection 1440 min, individual mice
  concentration in kidney: 0 ng/mL
[12]; [17]
  concentration in liver: 0 ng/mL
  concentration in lung: 0 ng/mL
[12]; male, C57BL/6, mouse, brain, intraperitoneal, 2 mg/kg, brain, sample collection 240 min, individual mice, read-out: concentration in brain
  concentration at 240 min: 0 ng/mL
[12]; male, C57BL/6, mouse, brain, intraperitoneal, 2 mg/kg, brain, sample collection 360 min, individual mice, read-out: concentration in brain
  concentration at 360 min: 0 ng/mL
[12]; male, C57BL/6, mouse, brain, intraperitoneal, 2 mg/kg, brain, sample collection 480 min, individual mice, read-out: concentration in brain
  concentration at 480 min: 0 ng/mL
[12]; male, C57BL/6, mouse, brain, intraperitoneal, 2 mg/ml, brain, sample collection 0 min, individual mice, read-out: concentration in brain
  concentration at 0 min: 0 ng/mL
[12]; male, C57BL/6, mouse, brain, intraperitoneal, 2 mg/ml, brain, sample collection 5 min, individual mice, read-out: concentration in brain
  concentration at 5 min: 11 ng/mL
[12]; male, C57BL/6, mouse, brain, intraperitoneal, 2 mg/ml, brain, sample collection 15 min, individual mice, read-out: concentration in brain
  concentration at 15 min: 23 ng/mL
[12]; male, C57BL/6, mouse, brain, intraperitoneal, 2 mg/ml, brain, individual mice, read-out: concentration in brain
  concentration at 120 min: 11 ng/mL
[12]; male, C57BL/6, mouse, brain, intraperitoneal, 2 mg/ml, brain, sample collection 1440 min, individual mice, read-out: concentration in brain
  concentration at 1440 min: 0 ng/mL
[12]; male, C57BL/6, mouse, heart, intraperitoneal, 2 mg/kg, heart, sample collection 240 min, individual mice, read-out: concentration in heart
  concentration at 240 min: 0 ng/mL
[12]; male, C57BL/6, mouse, heart, intraperitoneal, 2 mg/kg, heart, sample collection 360 min, individual mice, read-out: concentration in heart
  concentration at 360 min: 0 ng/mL
[12]; male, C57BL/6, mouse, heart, intraperitoneal, 2 mg/kg, heart, sample collection 480 min, individual mice, read-out: concentration in heart
  concentration at 480 min: 0 ng/mL
[12]; male, C57BL/6, mouse, heart, intraperitoneal, 2 mg/kg, heart, sample collection 1440 min, individual mice, read-out: concentration in heart
  concentration at 1440 min: 0 ng/mL
[12]; male, C57BL/6, mouse, heart, intraperitoneal, heart, sample collection 0 min, individual mice, read-out: concentration in heart
  concentration at 0 min: 0 ng/mL
[12]; male, C57BL/6, mouse, heart, intraperitoneal, heart, individual mice, read-out: concentration in heart
  concentration at 120 min: 0 ng/mL
[12]; male, C57BL/6, mouse, kidney, intraperitoneal, 2 mg/kg, kidney, sample collection 240 min, individual mice, read-out: concentration in kidney
  concentration at 240 min: 0 ng/mL
[12]; male, C57BL/6, mouse, kidney, intraperitoneal, 2 mg/kg, kidney, sample collection 360 min, individual mice, read-out: concentration in kidney
  concentration at 360 min: 0 ng/mL
[12]; male, C57BL/6, mouse, kidney, intraperitoneal, 2 mg/kg, kidney, sample collection 480 min, individual mice, read-out: concentration in kidney
  concentration at 480 min: 0 ng/mL
[12]; male, C57BL/6, mouse, kidney, intraperitoneal, 2 mg/kg, kidney, sample collection 1440 min, individual mice, read-out: concentration in kidney
  concentration at 1440 min: 0 ng/mL
[12]; male, C57BL/6, mouse, kidney, intraperitoneal, 2 mg/ml, kidney, sample collection 0 min, individual mice, read-out: concentration in kidney
  concentration at 0 min: 0 ng/mL
[12]; male, C57BL/6, mouse, kidney, intraperitoneal, 2 mg/ml, kidney, individual mice, read-out: concentration in kidney
  concentration at 120 min: 0 ng/mL
[12]; male, C57BL/6, mouse, kidney, intraperitoneal, 2 mg/ml, sample collection 30 min, individual mice
  concentration at 30 min: 51 ng/mL
[12]; male, C57BL/6, mouse, kidney, ip, mice, single i.p. injection 2 mg/kg
  half-life: 3.52 h
